According to ChEMBL document CHEMBL5625183, “Discovery of a novel dual-target inhibitor of CDK12 and PARP1 that induces synthetic lethality for treatment of triple-negative breast cancer” (Eur J Med Chem, 2023):
Calls of active or inactive are those of the source. The calls are words filed in the database; no cut-off is given here.

Assays:
[1] = target: Poly [ADP-ribose] polymerase 1 (Homo sapiens, UniProt P09874); test: Inhibition of PARP1 (unknown origin) incubated for 1 hr by ELISA analysis
[2] = Metabolic stability in BALB/c mouse liver microsome assessed as half life in presence of NADPH incubated upto 60 mins by LC-MS/MS analysis; assay type: ADME; conditions: liver microsomes
[3] = Half life in Sprague-Dawley rat 10 mg/kg, po measured upto 24 hrs by LC-MS/MS analysis; assay type: ADME, organism-based; conditions: in vivo
[4] = Cmax in Sprague-Dawley rat at 10 mg/kg, po measured upto 24 hrs by LC-MS/MS analysis; assay type: ADME, organism-based; conditions: in vivo
[5] = AUC (0 to t) in Sprague-Dawley rat at 10 mg/kg, po measured upto 24 hrs by LC-MS/MS analysis; assay type: ADME, organism-based; conditions: in vivo
[6] = AUC (0 to infinity) in Sprague-Dawley rat at 10 mg/kg, po measured upto 24 hrs by LC-MS/MS analysis; assay type: ADME, organism-based; conditions: in vivo
[7] = Apparent volume of distribution in Sprague-Dawley rat at 1 mg/kg, iv measured upto 24 hrs by LC-MS/MS analysis; assay type: ADME, organism-based; conditions: in vivo, read-out: Vz
[8] = target: Cyclin-dependent kinase 5 (Homo sapiens, UniProt Q00535); test: Inhibition of CDK5 (unknown origin)
MDA-MB-436 [9] = test: Downregulation of Pol II CTD at ser2 residue expression in human MDA-MB-436 cells incubated for 24 hrs; assay type: functional, cell-based; conditions: dose 5-20 µM
[10] = target: Cyclin-dependent kinase 12 (Homo sapiens, UniProt Q9NYV4); test: Inhibition of CDK12 in human MDA-MB-436 cells assessed as effect on Pol II CTD at ser7 residue phosphorylation incubated for 24 hrs; assay type: cell-based; conditions: dose 5-20 µM
MDA-MB-231 [11] = test: Induction of cell cycle arrest in human MDA-MB-231 cells assessed as accumulation of cells at G2 phase at 5 uM measured after 24 hrs by PI staining based cytometry analysis (reference value: 8.44 %); assay type: functional
MDA-MB-231 [12] = test: Induction of cell cycle arrest in human MDA-MB-231 cells assessed as accumulation of cells at S phase at 5 uM measured after 24 hrs by PI staining based cytometry analysis (reference value: 23.01 %); assay type: functional
MDA-MB-231 [13] = test: Induction of cell cycle arrest in human MDA-MB-231 cells assessed as accumulation of cells at G1 phase at 10 uM measured after 24 hrs by PI staining based cytometry analysis (reference value: 68.55%); assay type: functional
MDA-MB-231 [14] = test: Induction of cell cycle arrest in human MDA-MB-231 cells assessed as accumulation of cells at G2 phase at 10 uM measured after 24 hrs by PI staining based cytometry analysis (reference value: 8.44 %); assay type: functional
MDA-MB-231 [15] = test: Induction of cell cycle arrest in human MDA-MB-231 cells assessed as accumulation of cells at S phase at 10 uM measured after 24 hrs by PI staining based cytometry analysis (reference value: 23.01 %); assay type: functional
MDA-MB-231 [16] = test: Induction of cell cycle arrest in human MDA-MB-231 cells assessed as accumulation of cells at G2 phase at 20 uM measured after 24 hrs by PI staining based cytometry analysis (reference value: 8.44 %); assay type: functional
MDA-MB-436 [17] = test: Induction of cell cycle arrest in human MDA-MB-436 cells assessed as accumulation of cells at G1 phase at 10 uM measured after 24 hrs by PI staining based cytometry analysis (reference value: 72.04%); assay type: functional
MDA-MB-436 [18] = test: Induction of cell cycle arrest in human MDA-MB-436 cells assessed as accumulation of cells at S phase at 10 uM measured after 24 hrs by PI staining based cytometry analysis (reference value: 25.43%); assay type: functional
MDA-MB-436 [19] = test: Induction of cell cycle arrest in human MDA-MB-436 cells assessed as accumulation of cells at S phase at 20 uM measured after 24 hrs by PI staining based cytometry analysis (reference value: 25.43%); assay type: functional
MDA-MB-231 [20] = test: Antiproliferative activity against human MDA-MB-231 cells assessed as decrease in number of colony formation at 10 uM measured after 24 days by crystal violet staining based analysis; assay type: functional, cell-based; conditions: time 24.0 day
MDA-MB-231 [21] = test: Antiproliferative activity against human MDA-MB-231 cells assessed as reduction in EDU-positive cells at 10 uM […]-staining based analysis; assay type: functional, cell-based
MDA-MB-468 [22] = test: Inhibition of cell migration in human MDA-MB-468 cells assessed as wound closure at 10 uM incubated for 24 hrs by wound healing assay; assay type: functional, cell-based
MDA-MB-231 [23] = test: Inhibition of cell migration in human MDA-MB-231 cells at 10 uM incubated for 24 hrs by transwell assay; assay type: functional, cell-based
MDA-MB-468 [24] = test: Inhibition of cell migration in human MDA-MB-468 cells at 10 uM incubated for 24 hrs by transwell assay; assay type: functional, cell-based
MDA-MB-231 [25] = test: Inhibition of cell migration in human MDA-MB-231 cells assessed as upregulation of E-cadherin level by measuring fluorescence intensity at 10 uM incubated for 24 hrs by confocal microscopic analysis; assay type: functional, cell-based
MDA-MB-231 [26] = test: Inhibition of cell migration in human MDA-MB-231 cells assessed as downregulation of MMP-2 level by measuring fluorescence intensity at 10 uM incubated for 24 hrs by confocal microscopic analysis; assay type: functional, cell-based
MDA-MB-468 [27] = test: Inhibition of cell migration in human MDA-MB-468 cells assessed as downregulation of MMP-2 level by measuring fluorescence intensity at 10 uM incubated for 24 hrs by confocal microscopic analysis; assay type: functional, cell-based
MDA-MB-231 [28] = test: Induction of apoptosis in human MDA-MB-231 cells incubated for 24 hrs by Annexin V/PI staining based flow cytometry analysis; assay type: functional, cell-based; conditions: dose 5-20 µM
MDA-MB-468 [29] = test: Induction of apoptosis in human MDA-MB-468 cells incubated for 24 hrs by Annexin V/PI staining based flow cytometry analysis; assay type: functional, cell-based; conditions: dose 5-20 µM
MDA-MB-468 [30] = test: Induction of apoptosis in human MDA-MB-468 cells assessed as increase in […] at 10 uM incubated for 24 hrs by Annexin V/PI staining based flow cytometry analysis; assay type: functional, cell-based
MDA-MB-231 [31] = test: Induction of apoptosis in human MDA-MB-231 cells assessed as upregulation of cleaved-caspase 3 expression incubated for 24 hrs; assay type: functional, cell-based; conditions: dose 5-20 µM
MDA-MB-468 [32] = test: Induction of apoptosis in human MDA-MB-468 cells assessed as upregulation of cleaved-caspase 3 expression incubated for 24 hrs; assay type: functional, cell-based; conditions: dose 5-20 µM
MDA-MB-468 [33] = test: Induction of apoptosis in human MDA-MB-468 cells assessed as downregulation of Bcl-2 expression incubated for 24 hrs; assay type: functional, cell-based; conditions: dose 5-20 µM
[34] = Toxicity in BALB/c mouse xenografted with human MDA-MB-231 cells assessed as morphological changes in spleen at 20 to 80 mg/kg, ip administered once daily for 16 days by H and E staining based analysis; assay type: organism-based; conditions: in vivo, 384 h, dose 20-80 mg/kg, time 16 day
[35] = Toxicity in BALB/c mouse xenografted with human MDA-MB-231 cells assessed as morphological changes in kidney at 20 to 80 mg/kg, ip administered once daily for 16 days by H and E staining based analysis; assay type: organism-based; conditions: in vivo, 384 h, dose 20-80 mg/kg, time 16 day
Mus musculus = test: In-vivo inhibition of CDK12-PARP1 in BALB/c mouse assessed as downregulation of PAR expression in tumor at 20 to 80 mg/kg, ip administered once daily for 16 days by Western blot analysis; assay type: functional, organism-based; conditions: dose 20-80 mg/kg, time 16.0 day

Chain of Poly [ADP-ribose] polymerase 1 (P09874 whole entry): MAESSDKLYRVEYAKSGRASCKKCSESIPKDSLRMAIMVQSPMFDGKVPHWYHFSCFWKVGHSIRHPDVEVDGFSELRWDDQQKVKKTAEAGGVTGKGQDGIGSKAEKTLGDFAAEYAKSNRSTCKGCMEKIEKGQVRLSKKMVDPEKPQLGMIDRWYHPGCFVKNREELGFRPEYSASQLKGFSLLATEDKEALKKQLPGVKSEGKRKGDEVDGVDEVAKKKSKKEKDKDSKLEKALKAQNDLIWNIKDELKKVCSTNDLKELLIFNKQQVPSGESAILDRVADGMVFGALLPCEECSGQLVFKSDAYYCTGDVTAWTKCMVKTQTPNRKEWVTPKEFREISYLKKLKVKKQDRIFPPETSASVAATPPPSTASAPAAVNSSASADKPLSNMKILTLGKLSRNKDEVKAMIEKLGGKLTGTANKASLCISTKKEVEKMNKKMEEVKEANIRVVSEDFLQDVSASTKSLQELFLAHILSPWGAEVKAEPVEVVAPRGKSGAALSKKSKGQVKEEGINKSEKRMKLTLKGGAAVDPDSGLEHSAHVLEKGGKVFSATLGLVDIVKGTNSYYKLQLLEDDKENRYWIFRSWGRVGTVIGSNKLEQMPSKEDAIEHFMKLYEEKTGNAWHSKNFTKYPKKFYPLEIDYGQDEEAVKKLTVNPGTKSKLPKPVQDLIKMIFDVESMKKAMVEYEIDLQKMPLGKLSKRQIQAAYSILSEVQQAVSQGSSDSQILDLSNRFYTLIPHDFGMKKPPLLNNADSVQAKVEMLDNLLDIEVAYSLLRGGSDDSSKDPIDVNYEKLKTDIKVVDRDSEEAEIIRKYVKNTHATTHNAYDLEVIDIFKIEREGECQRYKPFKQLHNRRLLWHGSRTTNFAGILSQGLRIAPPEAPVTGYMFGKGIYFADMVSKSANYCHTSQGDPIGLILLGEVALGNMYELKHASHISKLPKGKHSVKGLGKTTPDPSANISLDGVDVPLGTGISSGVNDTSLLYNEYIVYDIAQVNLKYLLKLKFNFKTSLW
Chain of Cyclin-dependent kinase 12 (Q9NYV4 whole entry, looked up): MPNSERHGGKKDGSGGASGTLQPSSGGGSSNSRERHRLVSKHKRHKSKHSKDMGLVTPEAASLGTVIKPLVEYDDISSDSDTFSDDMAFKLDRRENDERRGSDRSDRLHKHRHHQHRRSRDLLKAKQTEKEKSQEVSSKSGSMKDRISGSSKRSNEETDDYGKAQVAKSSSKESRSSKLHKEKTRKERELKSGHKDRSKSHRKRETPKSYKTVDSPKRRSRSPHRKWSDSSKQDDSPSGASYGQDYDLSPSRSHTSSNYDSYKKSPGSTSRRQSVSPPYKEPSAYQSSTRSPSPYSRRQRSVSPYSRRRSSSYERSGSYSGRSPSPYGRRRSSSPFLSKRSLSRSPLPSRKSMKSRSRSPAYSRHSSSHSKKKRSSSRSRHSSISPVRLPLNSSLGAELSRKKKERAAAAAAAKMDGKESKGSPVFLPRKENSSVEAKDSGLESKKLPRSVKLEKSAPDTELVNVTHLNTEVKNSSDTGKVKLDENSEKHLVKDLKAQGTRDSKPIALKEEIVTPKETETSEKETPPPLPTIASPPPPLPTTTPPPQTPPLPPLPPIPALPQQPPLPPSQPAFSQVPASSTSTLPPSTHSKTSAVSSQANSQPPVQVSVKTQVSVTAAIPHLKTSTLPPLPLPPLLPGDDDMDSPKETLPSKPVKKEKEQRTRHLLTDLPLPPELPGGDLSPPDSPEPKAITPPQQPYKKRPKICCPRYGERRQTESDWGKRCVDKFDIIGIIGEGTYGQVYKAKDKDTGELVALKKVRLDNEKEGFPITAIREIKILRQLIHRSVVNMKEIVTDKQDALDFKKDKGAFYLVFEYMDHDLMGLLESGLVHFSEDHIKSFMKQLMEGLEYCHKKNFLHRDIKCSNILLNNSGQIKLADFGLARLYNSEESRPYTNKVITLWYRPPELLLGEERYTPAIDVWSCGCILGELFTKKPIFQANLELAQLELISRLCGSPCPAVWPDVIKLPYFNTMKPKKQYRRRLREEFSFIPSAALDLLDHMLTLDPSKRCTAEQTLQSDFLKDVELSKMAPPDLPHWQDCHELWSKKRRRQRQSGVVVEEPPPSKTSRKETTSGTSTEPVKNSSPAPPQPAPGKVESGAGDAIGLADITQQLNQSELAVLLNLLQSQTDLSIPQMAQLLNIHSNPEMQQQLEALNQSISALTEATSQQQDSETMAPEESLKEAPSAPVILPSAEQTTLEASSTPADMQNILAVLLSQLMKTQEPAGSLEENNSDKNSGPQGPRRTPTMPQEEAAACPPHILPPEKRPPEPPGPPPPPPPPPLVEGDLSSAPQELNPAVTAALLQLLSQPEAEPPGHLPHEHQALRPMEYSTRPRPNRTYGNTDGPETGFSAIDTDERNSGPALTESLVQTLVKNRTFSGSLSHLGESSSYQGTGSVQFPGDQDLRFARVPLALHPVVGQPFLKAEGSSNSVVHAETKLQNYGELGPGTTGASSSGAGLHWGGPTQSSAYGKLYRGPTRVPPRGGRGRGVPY
Chain of Cyclin-dependent kinase 5 (Q00535 whole entry): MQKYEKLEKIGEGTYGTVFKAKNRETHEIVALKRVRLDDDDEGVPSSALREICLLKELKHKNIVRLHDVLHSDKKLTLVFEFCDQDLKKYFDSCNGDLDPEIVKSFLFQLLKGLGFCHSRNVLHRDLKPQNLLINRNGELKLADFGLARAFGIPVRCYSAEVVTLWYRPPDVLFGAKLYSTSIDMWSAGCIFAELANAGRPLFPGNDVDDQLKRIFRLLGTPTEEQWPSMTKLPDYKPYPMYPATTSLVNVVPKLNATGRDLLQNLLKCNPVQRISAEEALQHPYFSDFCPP

For NC(=O)c1cccc2[nH]c(NC(=O)c3cccc(C(=O)N4CCC(Nc5ncc(I)cn5)CC4)c3)nc12, the IC50 [1] was 0.034 µM, the half-life [2] was 1.88 h and the half-life [3] was 2.39 h. For the same molecule, the Cmax [4] was 12.2 ng/mL, the AUC(0-t) at 24 h [5] was 60.6 ng·h/mL and the AUC(0-inf) [6] was 71.2 ng·h/mL. The Vd [7] was 3.22 L/kg, the IC50 [8] was 0.747 µM and the Activity (MDA-MB-436 [9]) was “Dose-Dependent Effect”. The inhibition [10] was “Dose-Dependent Effect”, the Activity (MDA-MB-231 [11]) was 16.84% and the Activity (MDA-MB-231 [12]) was 19.81%. It also gave an Activity (MDA-MB-231 [13]) of 61.71%, an Activity (MDA-MB-231 [14]) of 20.35% and an Activity (MDA-MB-231 [15]) of 17.93%. It also gave an Activity (MDA-MB-231 [16]) of 23.42%, an Activity (MDA-MB-436 [17]) of 66.94% and an Activity (MDA-MB-436 [18]) of 25.71%. For the same molecule, the Activity (MDA-MB-436 [19]) was 21.2%, the Activity (MDA-MB-231 [20]) was “Active” and the Activity (MDA-MB-231 [21]) was “Active”. For the same molecule, the inhibition (MDA-MB-468 [22]) was “Active”, the inhibition (MDA-MB-231 [23]) was “Active” and the inhibition (MDA-MB-468 [24]) was “Active”. The inhibition (MDA-MB-231 [25]) was “Active”, the inhibition (MDA-MB-231 [26]) was “Active” and the inhibition (MDA-MB-468 [27]) was “Active”. The Activity (MDA-MB-231 [28]) was “Dose-Dependent Effect”, the Activity (MDA-MB-468 [29]) was “Dose-Dependent Effect” and the Activity (MDA-MB-468 [30]) was “Active”. The Activity (MDA-MB-231 [31]) was “Dose-Dependent Effect”, the Activity (MDA-MB-468 [32]) was “Dose-Dependent Effect” and the Activity (MDA-MB-468 [33]) was “Dose-Dependent Effect”. The Activity [34] was “Non-Toxic”, the Activity [35] was “Non-Toxic” and the inhibition (Mus musculus) was “Active”.
